Test results from ChEMBL document CHEMBL1201862, “PubChem BioAssay data set” (2004).
Activity calls are given as the source filed them.

Columns and labels:
[1] = target: T1, Alkaline phosphatase, tissue-nonspecific isozyme (Homo sapiens, UniProt P05186)
T1 sequence (P05186 whole entry): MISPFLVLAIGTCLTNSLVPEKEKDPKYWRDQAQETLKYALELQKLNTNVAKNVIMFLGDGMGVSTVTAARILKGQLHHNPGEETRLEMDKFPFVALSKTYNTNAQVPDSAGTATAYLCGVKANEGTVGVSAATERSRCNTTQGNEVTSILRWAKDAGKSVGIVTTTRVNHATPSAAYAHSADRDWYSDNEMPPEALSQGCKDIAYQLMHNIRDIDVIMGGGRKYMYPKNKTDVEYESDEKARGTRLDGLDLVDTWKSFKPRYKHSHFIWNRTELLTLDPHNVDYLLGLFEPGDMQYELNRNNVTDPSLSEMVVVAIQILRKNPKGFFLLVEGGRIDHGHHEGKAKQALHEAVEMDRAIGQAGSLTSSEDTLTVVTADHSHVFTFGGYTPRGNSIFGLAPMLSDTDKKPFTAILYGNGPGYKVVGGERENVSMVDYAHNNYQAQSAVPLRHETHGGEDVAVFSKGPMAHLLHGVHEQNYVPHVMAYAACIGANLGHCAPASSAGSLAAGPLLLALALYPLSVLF

[2] = HeLa cell cytotoxicity, dose response, cytotoxicity control for MgcRacGAP inhibitor project (AID 624300); type: functional
[3] = Luminescence Cell-Based Dose Confirmation HTS to Identify Inhibitors of Polyadenylation.; type: functional
Troponin, cardiac muscle = Troponin, cardiac muscle (Homo sapiens, UniProt P19429+P45379+P63316); assay: Fluorescence-based biochemical high throughput dose response assay for activators of the calcium sensitivity of cardiac Regulated Thin Filaments (RTF). [Related pubchem assays (depositor defined):AID493008, AID493018, AID504382, AID504383]; type: protein-complex assay
[4] = polyadenylation inhibitors in yeast reporter, dose response, luminescence, S. cerevisiae SKY197-pL101 (AID 2525); type: functional, cell-based
[5] = target: T2, Rac GTPase-activating protein 1 (Homo sapiens, UniProt Q9H0H5); assay: MgcRacGAP GTPase-activating activity inhibitors, confirmation, biochemical, ADP Hunter fluorescence, primary and confirmatory (AID 624330); type: functional
T2 sequence (Q9H0H5 whole entry): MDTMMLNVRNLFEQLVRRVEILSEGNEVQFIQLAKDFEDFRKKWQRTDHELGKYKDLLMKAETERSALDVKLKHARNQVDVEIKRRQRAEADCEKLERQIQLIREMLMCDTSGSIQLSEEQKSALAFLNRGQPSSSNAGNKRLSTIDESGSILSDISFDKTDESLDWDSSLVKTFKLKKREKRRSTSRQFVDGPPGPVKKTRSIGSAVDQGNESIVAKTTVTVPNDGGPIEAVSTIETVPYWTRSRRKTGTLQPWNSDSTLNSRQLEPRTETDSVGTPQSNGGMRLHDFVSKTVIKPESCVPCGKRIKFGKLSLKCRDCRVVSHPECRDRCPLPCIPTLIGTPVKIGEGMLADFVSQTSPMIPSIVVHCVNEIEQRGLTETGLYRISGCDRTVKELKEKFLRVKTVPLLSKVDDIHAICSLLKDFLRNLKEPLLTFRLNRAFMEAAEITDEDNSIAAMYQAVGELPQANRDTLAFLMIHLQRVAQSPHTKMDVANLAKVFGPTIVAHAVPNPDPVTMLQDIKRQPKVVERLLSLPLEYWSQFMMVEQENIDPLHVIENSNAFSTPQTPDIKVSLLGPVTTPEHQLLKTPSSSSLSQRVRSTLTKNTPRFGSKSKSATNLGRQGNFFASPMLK

Cytochrome P450 2D6 = Cytochrome P450 2D6 (Homo sapiens, UniProt P10635); assay: qHTS Assay for Inhibitors and Substrates of Cytochrome P450 2D6. [Related pubchem assays: 410 ]; type: ADME; conditions: read-out: Potency
[6] = A Cell Based Secondary Assay To Explore Cytotoxicity of Compounds that Sensitize Mycobacterium Tuberculosis to Beta-Lactam Antibiotics.; type: functional
[7] = target: Peroxisome proliferator-activated receptor gamma/Nuclear receptor corepressor 2 (Homo sapiens, UniProt P37231+Q9Y618); type: functional
[8] = target: Photoreceptor-specific nuclear receptor (Homo sapiens, UniProt Q9Y5X4); type: functional;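 note: potency for compounds that break the NR2E3 corepressor complex and count as activators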
Leucine aminopeptidase = target: T3, Leucine aminopeptidase (Plasmodium falciparum 3D7, UniProt Q8IL11); assay: P. falciparum M17LAP inhibitors, primary screen, biochemical, fluorogenic H-Leu-NHMec substrate, 1536-well (AID 1619); type: functional
T3 sequence (Q8IL11 whole entry): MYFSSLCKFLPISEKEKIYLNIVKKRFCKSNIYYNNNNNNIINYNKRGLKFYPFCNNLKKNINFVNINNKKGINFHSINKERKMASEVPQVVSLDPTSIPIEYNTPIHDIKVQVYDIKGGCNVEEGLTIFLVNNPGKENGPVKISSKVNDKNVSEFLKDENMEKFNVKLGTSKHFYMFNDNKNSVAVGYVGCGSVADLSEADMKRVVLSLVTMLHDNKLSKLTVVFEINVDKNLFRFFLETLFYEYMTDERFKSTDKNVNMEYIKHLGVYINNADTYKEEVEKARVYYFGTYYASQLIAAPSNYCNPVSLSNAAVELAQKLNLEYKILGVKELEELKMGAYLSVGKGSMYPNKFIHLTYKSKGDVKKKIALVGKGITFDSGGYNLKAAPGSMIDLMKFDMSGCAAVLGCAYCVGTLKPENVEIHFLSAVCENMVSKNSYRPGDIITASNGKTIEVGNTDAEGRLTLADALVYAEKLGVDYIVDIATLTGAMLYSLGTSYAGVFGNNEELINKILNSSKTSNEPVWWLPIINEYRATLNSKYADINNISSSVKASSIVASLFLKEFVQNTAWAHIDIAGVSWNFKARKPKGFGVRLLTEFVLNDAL

[9] = target: T4, Probable nicotinate-nucleotide adenylyltransferase (Staphylococcus aureus (strain N315), UniProt P65502); type: functional, Staphylococcus aureus subsp. aureus N315; conditions: read-out: IC50_Mean;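 for IC50 Mean: confirmatory dose-response retesting of NadD inhibitor hits first found in an ultra-high-throughput screen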
Beta-lactamase [10] = target: Beta-lactamase (Salmonella choleraesuis (strain SC-B67), UniProt Q5J463); assay: Epi-absorbance-based counterscreen for selective VIM-2 inhibitors: dose response biochemical high throughput screening assay to identify inhibitors of TEM-1 serine-beta-lactamase.
Beta Lactamase [11] = target: T5, Beta Lactamase (Pseudomonas aeruginosa, UniProt Q932Y6); assay: VIM-2 inhibitor FRET-based artefact check, dose response, artefact control for selective VIM-2 inhibitor project, biochemical, FRET readout, CCF2 substrate (AID 1926)
[12] = target: T6, Calpain-2 catalytic subunit (Sus scrofa, UniProt P43367); assay: pig calpain II inhibitor potency, dose response, biochemical, fluorogenic peptide substrate (AID 1420); type: functional
T6 sequence (P43367 whole entry): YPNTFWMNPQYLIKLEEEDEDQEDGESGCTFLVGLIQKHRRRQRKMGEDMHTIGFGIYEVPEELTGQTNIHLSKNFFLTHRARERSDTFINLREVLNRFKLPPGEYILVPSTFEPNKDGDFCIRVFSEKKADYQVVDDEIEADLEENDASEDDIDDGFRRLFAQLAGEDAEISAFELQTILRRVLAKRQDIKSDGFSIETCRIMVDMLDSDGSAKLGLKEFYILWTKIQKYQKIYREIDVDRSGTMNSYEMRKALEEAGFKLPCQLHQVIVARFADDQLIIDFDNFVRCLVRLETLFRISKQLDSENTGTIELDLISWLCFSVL

[13] = target: T4, Probable nicotinate-nucleotide adenylyltransferase; type: functional, Staphylococcus aureus subsp. aureus N315
[14] = HIV-1 Env-mediated cell fusion inhibitors, dose response, CCR5-tropic Env (AID 2279); type: functional
Beta Lactamase [15] = target: T5, Beta Lactamase; assay: VIM-2 metallo-beta-lactamase inhibitor potency, dose response, biochemical, epi-absorbance readout, selective inhibitors (AID 1919)
Beta-lactamase [16] = target: T7, Beta-lactamase (Pseudomonas aeruginosa, UniProt Q79MP6); assay: IMP-1 metallo-beta-lactamase inhibitors, dose response, selectivity assay for VIM-2 inhibitor project, biochemical, epi-absorbance (AID 1920)
Beta-lactamase [17] = target: T7, Beta-lactamase; assay: […] counterscreen for selective VIM-2 inhibitors: dose response biochemical high throughput screening assay to identify inhibitors of IMP-1 metallo-beta-lactamase.
[18] = target: Muscarinic acetylcholine receptor M1 (Rattus norvegicus, UniProt P08482); assay: Discovery of novel allosteric modulators of the M1 muscarinic receptor: Agonist NMS binding at M1. [Related pubchem assays: 626 ]
[19] = target: Muscarinic acetylcholine receptor M5 (Homo sapiens, UniProt P08912); assay: (§1) Discovery of novel allosteric modulators of the M1 muscarinic receptor: Agonist NMS competition at M5. [Related pubchem assays: 1488 (Discovery of novel allosteric modulators of the M1 muscarinic receptor: Agonist Confirmation Assay), 626 (Discovery of Novel Allosteric Modulators of the M1 Muscarinic Receptor: Agonist Primary Screen)]; type: functional
[20] = target: Muscarinic acetylcholine receptor M3 (Homo sapiens, UniProt P20309); assay: as §1, with “M3.” for “M5.”; type: functional
[21] = target: Muscarinic acetylcholine receptor M2 (Homo sapiens, UniProt P08172); assay: Discovery of novel allosteric modulators of the M1 muscarinic receptor: Agonist NMS competition at M2. [Related pubchem assays: 626 (Discovery of Novel Allosteric Modulators of the M1 Muscarinic Receptor: Agonist Primary Screen), 1488 (Discovery of novel allosteric modulators of the M1 muscarinic receptor: Agonist Confirmation Assay)]; type: functional
[22] = target: T8, Histone-lysine N-methyltransferase NSD2 (Homo sapiens, UniProt O96028); type: biochemical
T8 sequence (O96028 whole entry): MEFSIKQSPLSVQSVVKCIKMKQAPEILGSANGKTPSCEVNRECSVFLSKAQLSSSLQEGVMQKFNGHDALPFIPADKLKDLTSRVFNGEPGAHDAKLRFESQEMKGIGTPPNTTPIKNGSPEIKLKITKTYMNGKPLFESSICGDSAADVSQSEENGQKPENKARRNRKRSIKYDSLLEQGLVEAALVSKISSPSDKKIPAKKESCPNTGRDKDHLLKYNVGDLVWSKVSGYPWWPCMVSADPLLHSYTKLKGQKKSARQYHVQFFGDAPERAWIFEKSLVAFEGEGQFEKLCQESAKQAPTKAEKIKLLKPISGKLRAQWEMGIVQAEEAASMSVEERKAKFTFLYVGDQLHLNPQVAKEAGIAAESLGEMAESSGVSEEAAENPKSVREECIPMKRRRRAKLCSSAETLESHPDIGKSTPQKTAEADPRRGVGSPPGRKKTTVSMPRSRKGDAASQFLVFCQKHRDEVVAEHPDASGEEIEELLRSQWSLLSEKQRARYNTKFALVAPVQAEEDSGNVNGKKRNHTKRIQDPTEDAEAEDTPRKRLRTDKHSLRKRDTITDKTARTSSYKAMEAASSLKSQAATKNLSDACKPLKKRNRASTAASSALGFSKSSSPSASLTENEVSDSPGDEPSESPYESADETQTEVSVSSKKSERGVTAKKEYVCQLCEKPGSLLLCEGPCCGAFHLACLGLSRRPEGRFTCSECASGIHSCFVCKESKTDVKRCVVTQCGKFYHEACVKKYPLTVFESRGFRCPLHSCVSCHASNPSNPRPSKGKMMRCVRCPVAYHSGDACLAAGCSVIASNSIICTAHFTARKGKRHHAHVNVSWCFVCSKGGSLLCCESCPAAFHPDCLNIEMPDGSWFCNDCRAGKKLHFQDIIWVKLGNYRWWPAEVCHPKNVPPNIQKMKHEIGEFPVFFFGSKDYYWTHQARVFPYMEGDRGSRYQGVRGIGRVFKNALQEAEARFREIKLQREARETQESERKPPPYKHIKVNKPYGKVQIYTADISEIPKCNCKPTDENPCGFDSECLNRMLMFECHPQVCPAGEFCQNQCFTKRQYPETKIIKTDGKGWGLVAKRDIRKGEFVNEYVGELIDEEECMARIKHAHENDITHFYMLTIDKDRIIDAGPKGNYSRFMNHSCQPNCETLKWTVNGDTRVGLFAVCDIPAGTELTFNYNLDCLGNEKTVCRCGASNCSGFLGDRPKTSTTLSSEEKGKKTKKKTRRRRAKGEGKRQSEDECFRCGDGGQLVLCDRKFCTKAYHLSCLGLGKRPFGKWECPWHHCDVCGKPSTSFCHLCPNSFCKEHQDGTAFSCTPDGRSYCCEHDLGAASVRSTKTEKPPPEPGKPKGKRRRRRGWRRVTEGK

[23] = target: Lysosomal acid glucosylceramidase (Homo sapiens, UniProt P04062); assay: Dose response cell-based high throughput screening assay to identify enhancers of beta-glucosidase activity. [Related pubchem assays: 784 ]; type: functional
Procathepsin L = Procathepsin L (Homo sapiens, UniProt P07711)
Aspartyl aminopeptidase = Aspartyl aminopeptidase (Plasmodium falciparum 3D7, UniProt Q8I2J3)
Sequence of Aspartyl aminopeptidase (Q8I2J3 whole entry): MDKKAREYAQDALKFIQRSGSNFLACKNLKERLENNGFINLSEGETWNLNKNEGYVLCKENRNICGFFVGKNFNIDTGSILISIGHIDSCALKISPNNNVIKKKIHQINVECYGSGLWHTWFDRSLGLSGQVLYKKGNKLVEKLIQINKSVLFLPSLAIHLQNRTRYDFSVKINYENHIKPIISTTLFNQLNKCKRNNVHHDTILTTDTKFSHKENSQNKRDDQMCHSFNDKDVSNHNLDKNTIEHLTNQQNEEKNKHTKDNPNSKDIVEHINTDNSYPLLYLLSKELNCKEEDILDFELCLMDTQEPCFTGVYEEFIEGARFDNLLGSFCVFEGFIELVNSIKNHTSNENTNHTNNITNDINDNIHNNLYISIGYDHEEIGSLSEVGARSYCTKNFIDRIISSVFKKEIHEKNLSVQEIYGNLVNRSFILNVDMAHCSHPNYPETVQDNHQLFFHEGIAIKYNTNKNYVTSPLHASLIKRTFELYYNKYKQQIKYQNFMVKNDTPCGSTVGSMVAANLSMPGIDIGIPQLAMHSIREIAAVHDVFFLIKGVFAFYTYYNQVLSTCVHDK

T7 sequence (Q79MP6 whole entry): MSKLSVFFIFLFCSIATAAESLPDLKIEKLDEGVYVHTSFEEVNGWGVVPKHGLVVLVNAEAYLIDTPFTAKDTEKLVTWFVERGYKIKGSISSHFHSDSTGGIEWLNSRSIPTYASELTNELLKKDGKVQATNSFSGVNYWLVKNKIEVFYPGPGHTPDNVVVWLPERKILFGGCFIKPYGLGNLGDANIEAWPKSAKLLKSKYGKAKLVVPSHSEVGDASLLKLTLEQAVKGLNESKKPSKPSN
T5 sequence (Q932Y6 whole entry): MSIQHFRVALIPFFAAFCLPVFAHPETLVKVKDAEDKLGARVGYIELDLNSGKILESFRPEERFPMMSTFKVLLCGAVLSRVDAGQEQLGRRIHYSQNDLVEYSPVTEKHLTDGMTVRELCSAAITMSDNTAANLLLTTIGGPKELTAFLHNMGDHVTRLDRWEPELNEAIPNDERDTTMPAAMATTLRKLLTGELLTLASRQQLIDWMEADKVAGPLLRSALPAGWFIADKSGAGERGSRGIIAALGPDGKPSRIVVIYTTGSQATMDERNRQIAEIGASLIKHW
T4 sequence (P65502 whole entry): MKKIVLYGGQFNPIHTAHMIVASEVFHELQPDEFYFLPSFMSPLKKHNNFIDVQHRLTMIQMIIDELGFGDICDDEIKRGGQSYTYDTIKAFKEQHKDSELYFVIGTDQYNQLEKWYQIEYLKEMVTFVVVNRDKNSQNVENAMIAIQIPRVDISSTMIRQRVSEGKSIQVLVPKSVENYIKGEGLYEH
Sequence of Muscarinic acetylcholine receptor M3 (P20309 whole entry): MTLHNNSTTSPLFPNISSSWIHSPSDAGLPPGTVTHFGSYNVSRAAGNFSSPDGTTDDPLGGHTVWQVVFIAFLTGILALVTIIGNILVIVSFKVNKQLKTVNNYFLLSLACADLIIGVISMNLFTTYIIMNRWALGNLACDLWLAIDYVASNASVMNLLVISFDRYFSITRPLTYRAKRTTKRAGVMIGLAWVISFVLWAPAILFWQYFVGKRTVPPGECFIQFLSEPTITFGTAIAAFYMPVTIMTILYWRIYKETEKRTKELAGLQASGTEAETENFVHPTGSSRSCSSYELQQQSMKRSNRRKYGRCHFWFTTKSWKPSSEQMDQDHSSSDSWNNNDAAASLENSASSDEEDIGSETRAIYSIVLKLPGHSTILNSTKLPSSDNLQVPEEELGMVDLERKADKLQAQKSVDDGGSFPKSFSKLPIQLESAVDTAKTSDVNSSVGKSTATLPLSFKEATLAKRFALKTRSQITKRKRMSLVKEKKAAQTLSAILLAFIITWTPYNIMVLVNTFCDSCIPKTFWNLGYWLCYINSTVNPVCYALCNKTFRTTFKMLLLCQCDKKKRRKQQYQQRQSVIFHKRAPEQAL
Sequence of Procathepsin L (P07711 whole entry): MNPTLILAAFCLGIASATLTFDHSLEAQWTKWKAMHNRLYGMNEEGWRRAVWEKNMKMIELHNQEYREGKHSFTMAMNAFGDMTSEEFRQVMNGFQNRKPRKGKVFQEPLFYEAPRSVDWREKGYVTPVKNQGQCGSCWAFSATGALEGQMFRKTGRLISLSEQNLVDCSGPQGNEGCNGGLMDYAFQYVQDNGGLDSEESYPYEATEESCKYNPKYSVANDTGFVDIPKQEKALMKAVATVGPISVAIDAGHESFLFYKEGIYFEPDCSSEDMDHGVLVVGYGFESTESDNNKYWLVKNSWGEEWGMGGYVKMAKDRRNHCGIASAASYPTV
Sequence of Beta-lactamase (Salmonella choleraesuis (strain SC-B67), UniProt Q5J463) (Q5J463 whole entry): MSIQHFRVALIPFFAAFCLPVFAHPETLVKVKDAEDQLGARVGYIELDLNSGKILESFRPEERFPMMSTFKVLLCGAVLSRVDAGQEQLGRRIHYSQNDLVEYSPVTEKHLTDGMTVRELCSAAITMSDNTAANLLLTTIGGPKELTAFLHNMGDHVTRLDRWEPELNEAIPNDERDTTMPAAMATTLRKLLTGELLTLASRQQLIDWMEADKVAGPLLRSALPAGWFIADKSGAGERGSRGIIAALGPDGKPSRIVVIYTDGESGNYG
Sequence of Muscarinic acetylcholine receptor M1 (P08482 whole entry): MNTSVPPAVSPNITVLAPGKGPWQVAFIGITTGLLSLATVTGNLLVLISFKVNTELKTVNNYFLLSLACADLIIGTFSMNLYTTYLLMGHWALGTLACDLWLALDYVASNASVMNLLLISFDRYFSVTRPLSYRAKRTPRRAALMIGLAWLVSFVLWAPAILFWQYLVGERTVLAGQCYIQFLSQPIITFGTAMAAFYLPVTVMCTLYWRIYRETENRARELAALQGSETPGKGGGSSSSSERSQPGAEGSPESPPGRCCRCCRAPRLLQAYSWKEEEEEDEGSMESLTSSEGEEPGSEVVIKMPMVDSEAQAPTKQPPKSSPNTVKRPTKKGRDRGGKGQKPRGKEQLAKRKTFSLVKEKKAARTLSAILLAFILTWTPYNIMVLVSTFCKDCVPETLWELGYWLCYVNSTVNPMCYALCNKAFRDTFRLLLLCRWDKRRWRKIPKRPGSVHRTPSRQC
Sequence of Muscarinic acetylcholine receptor M5 (P08912 whole entry): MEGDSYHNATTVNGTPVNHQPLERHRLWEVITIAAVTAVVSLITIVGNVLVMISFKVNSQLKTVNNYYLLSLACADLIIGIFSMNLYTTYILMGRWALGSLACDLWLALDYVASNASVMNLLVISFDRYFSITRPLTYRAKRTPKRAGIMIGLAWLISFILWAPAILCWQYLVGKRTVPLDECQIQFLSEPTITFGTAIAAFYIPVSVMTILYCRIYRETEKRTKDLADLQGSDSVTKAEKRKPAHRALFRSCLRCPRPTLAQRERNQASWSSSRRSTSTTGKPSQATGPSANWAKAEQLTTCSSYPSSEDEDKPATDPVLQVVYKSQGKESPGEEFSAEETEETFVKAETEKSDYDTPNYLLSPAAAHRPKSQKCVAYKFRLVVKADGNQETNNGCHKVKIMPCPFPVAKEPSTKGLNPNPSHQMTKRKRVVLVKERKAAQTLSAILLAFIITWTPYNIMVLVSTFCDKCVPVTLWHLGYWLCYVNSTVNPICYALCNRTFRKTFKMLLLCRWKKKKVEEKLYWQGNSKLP
Sequence of Cytochrome P450 2D6 (P10635 whole entry): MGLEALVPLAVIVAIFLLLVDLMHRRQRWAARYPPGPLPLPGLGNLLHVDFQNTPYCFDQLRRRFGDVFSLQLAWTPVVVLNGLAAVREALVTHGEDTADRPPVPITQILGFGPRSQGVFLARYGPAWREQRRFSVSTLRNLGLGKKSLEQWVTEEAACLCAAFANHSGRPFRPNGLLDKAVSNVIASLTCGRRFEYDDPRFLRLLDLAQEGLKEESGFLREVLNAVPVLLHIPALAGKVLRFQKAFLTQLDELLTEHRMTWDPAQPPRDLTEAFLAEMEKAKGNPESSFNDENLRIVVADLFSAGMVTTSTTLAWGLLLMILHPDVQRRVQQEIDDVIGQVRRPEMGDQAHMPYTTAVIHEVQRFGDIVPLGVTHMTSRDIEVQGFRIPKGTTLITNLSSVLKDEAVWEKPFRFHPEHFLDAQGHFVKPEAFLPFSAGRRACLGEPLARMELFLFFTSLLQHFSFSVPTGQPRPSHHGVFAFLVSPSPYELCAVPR
Sequence of Muscarinic acetylcholine receptor M2 (P08172 whole entry): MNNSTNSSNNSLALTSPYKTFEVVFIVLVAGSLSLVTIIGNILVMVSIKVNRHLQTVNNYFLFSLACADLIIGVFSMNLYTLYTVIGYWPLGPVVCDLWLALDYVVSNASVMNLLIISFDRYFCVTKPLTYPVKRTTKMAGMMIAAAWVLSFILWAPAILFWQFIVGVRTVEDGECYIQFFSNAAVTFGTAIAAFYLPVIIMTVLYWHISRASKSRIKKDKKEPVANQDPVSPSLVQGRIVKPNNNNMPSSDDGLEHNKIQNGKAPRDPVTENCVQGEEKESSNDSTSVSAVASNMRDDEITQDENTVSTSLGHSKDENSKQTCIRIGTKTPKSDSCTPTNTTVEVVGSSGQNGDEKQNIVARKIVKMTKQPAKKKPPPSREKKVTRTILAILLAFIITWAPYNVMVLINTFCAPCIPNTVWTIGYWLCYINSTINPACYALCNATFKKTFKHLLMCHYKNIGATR
Sequence of Photoreceptor-specific nuclear receptor (Q9Y5X4 whole entry): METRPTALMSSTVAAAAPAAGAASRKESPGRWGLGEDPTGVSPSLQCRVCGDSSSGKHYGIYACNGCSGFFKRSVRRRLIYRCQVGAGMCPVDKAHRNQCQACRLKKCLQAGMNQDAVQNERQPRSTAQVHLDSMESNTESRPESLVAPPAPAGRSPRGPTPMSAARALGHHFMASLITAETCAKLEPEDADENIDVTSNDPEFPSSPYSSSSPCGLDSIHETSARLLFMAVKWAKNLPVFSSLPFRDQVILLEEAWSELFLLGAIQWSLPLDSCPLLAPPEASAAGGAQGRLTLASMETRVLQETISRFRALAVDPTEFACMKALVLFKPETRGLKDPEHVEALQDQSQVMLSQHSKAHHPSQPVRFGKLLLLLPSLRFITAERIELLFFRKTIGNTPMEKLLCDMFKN

Fc1ccccc1N1CC(c2ccccc2)C(c2cccs2)=N1 (stereo not drawn)
EC50 [1]: > 100 µM (not active)

CCOc1cc(/C=C2\N=C(SC(C)C(N)=O)N(c3ccc(OC(F)F)cc3)C2=O)ccc1O (stereo not drawn)
CC50 [2]: 51.2 µM (active)
EC50 [3]: 10.7 µM (active)
EC50 (Troponin, cardiac muscle): 8.42 µM (active)
EC50 [4]: 19.4 µM (active)
IC50 [5]: 91.2 µM (active)

CC12C=C(/C=C/c3ccc(Br)cc3)C(C)(C1)C(c1ccc(Br)cc1)CC2=O (stereo not drawn)
AC50 (Cytochrome P450 2D6): 7.94 µM (inconclusive)

CCOc1ccccc1C(=O)Nc1cccc(-c2ccc3nncn3n2)c1
CC50 [6]: > 40 µM (active)

COc1cccc2cc(C(=O)C3=C(O)C(=O)N(CCN4CCOCC4)C3c3cccs3)oc12 (stereo not drawn)
IC50 [7]: 13.7 µM (not active)
IC50 [8]: > 39.8 µM (not active)

O=C(O)c1cccc(NC(=S)N/N=C/c2ccccc2OCc2cccc(Br)c2)c1
IC50 (Leucine aminopeptidase): 15.8 µM (active)
IC50 [9]: 15.8 µM (active)
IC50 (Beta-lactamase [10]): > 59.6 µM (inactive)
IC50 (Beta Lactamase [11]): 1.16 µM (active)
IC50 [12]: > 50 µM (not active)
IC50 [13]: 5.97 µM (active)
IC50 [14]: 44.4 µM (active)
IC50 (Beta Lactamase [15]): 9.15 µM (active)
IC50 (Beta-lactamase [16]): > 59.6 µM (inactive)
IC50 (Beta-lactamase [17]): > 59.6 µM (inactive)

CCOC(=O)N1CCC(NCCNC(=O)c2cccs2)CC1
EC50 [18]: 14.4 µM (inconclusive)
EC50 [19]: 88.4 µM (inconclusive)
EC50 [20]: 77 µM (inconclusive)
EC50 [21]: 48.9 µM (inconclusive)

CCN(CC)CCCNC(=O)c1cc(-c2cccc(Cl)c2)on1
AC50 [22]: > 20 µM (inactive)
EC50 [23]: > 50 µM (not active)

O=C(Nn1cnnc1)c1csc2ccccc12
IC50 (Procathepsin L): > 59.6 µM (not active)
IC50 (Aspartyl aminopeptidase): 2.17 µM (active)
